Where a name gives a salt, the structure may show the parent alone.
How the values were obtained:
D1 receptor = D1 receptor (Rattus norvegicus, UniProt P18901); experiment: biochemical; format: binding, rat (Sprague-Dawley); conditions: [3H]-SCH23390 0.2 nM, rat striated membranes, pH 7.4, 37° C., 20 minutes; read-out: Affinity [K1 (nM)] towards D1 receptor
Method: (§1) The tissue were homogenized in 50 mM Tris/HCl buffer at pH 7.4 (1:100 w/v).
(§2) The homogenate was centrifuged and the pellet resuspended, recentrifuged and resuspended again in 50 mM Tris/HCl buffer at pH 7.4 containing 120 mM NaCl, 5 mM KCl, 2 mM CaCl2 and 1 mM MgCl2.
The mixture was incubated with different concentrations of the tested compounds at 37° C. for 20 minutes, filtered under vacuum through Whatman GF/C filters and then washed 4 times with 5 ml of 50 mM Tris/HCl buffer (pH 7.4) cooled with ice.

D2 receptor = D2 receptor (Rattus norvegicus, UniProt P61169); experiment: biochemical; format: binding, rat (Sprague-Dawley); conditions: [3H]-domperidone 0.3 nM, rat striated membranes, 0.01% BSA, 37° C., 30 minutes; read-out: Affinity [K1 (nM)] towards D2 receptor
Method: as §1, §2
Furthermore, bovine serum albumine (BSA) (0.01%) was added.
The mixture was incubated at 37° C. for 30 minutes for each concentration of tested compounds.

[1] = system: D1 -like (Rabbit Splenic Artery); experiment: D1-like activity in the Rabbit Splenic Artery (RSA) test; conditions: agonist activity at the peak of the effect; contracted with U46619 0.1 μM
Method: Arterial rings were prepared according to Semeraro et al., Naunyn. Schmied. Arch. Pharmacol., 1990, 342, 539.
The arterial preparations were contracted with U46619 (9,11-di-deoxy-11α,9α-epoxy-methanoprostaglandin F2α) at the submaximal concentration 0.1 μM.
(§3) The tested compounds were cumulatively administered.
(§4) Ref. A was used as reference substance.
(§5) Agonist activity evaluated at the peak of the effect and expressed as potency ratio (EC50 of Ref. A/EC50 of tested compound) is reported in table 2.

[2] = target: T1, D2 -like (Rabbit Ear Artery) (Oryctolagus cuniculus, UniProt G1T1Q0); experiment: D2-like activity in the Rabbit Ear Artery (REA) test; set-up: species or system New Zealand rabbit; conditions: agonist activity at the peak of the effect; electrically stimulated
T1 construct: the central ear artery was dissected into 3 mm long rings; from tissue; host or cells: rabbit central ear artery rings (male New Zealand rabbits), electrically stimulated
Method: Arterial rings were prepared according to the method described by Steinsland et al., Science, 1978, 443, 199, modified as follows. Male New Zealand rabbits weighing 2.5-3 Kg were sacrificed by intravenous injection of an excess of pentobarbital sodium and exsanguinated. The two ears were taken away and the central ear artery was dissected into 3 mm long rings.
These preparations were set up in a 25 ml organ bath containing Krebs solution (mM/l): NaCl 118, KCl 4.7, CaCl2 2.5, MgSO4 1.2, NaHCO3 25, KH2 PO4 1.2, glucose 11.1, equilibrated with 95% 02 -5% CO2 and maintained at 35°±1° C.
Krebs solution was medicated with EDTA (10 μM) to prevent cathecolamine oxydation, desipramine (0.1 μM) and corticosterone (30 μM), to block neuronal and extraneuronal cathecolamine uptake. The preparations were electrically stimulated (10 Hz, 1 msec, 40-80 mA, 500 msec duration) at 5 minutes intervals.
as §3, §4, §5

T1 sequence (G1T1Q0 1-443): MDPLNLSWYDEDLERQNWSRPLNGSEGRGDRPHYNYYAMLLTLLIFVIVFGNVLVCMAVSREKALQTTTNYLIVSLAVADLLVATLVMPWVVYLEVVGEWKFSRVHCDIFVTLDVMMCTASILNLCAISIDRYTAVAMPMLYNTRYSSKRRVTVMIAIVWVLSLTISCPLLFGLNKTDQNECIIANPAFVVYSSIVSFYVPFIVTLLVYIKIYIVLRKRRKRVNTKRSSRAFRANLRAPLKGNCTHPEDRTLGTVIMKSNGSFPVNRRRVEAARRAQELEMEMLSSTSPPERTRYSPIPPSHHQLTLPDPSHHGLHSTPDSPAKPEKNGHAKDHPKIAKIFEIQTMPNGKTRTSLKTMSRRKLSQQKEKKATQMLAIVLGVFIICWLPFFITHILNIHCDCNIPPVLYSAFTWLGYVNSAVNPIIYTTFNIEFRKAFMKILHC
Chain of D2 receptor (P61169 whole entry): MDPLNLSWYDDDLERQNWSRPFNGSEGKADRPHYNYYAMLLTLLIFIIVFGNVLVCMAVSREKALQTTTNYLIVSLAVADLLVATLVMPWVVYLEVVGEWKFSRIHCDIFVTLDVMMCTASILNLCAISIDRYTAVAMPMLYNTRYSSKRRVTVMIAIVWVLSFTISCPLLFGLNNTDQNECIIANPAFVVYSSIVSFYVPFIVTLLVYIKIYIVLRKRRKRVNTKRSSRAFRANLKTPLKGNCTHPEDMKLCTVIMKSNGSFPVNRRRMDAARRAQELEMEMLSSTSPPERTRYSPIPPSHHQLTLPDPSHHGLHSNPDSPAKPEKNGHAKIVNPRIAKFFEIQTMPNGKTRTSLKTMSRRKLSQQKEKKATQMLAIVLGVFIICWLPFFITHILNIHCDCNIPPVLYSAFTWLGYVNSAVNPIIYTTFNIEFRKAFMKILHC
Chain of D1 receptor (P18901 whole entry): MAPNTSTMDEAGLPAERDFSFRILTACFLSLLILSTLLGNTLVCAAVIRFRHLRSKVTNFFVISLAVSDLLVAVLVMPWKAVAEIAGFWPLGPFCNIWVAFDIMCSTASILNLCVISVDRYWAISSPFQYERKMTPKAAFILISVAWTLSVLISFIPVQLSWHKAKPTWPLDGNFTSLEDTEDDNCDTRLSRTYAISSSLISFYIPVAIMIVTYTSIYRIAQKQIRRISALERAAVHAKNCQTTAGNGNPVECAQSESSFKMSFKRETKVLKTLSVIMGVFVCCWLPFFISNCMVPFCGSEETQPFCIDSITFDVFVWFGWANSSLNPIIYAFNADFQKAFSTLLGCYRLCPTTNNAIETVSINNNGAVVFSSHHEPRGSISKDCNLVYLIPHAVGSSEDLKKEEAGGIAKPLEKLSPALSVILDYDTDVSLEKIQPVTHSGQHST

| Compound | Ki (D1 receptor) | Ki (D2 receptor) | D1 -like (RSA) potency ratio (EC50 of Ref. A/EC50 of tested compound) [1] | D2 -like (REA) potency ratio (EC50 of Ref. A/EC50 of tested compound) [2] |
| --- | --- | --- | --- | --- |
| CCCN(CCCCCCNCC1COc2ccccc2O1)[C@H]1CCc2c(ccc(O)c2O)C1 (stereo partly drawn) [Compound 1, (S)-N-propyl-N-[6-[(1,4-benzodioxan-2-yl)methylamino]hexyl]-5,6-dihydroxy-1,2,3,4-tetrahydro-2-naphthylamine dihydrochloride] | 49 nM | 0.66 nM | – | – |
| CCCN(CCCCCCNCCc1ccc2c(c1)OCO2)[C@H]1CCc2c(ccc(O)c2O)C1.Cl.Cl [Compound 2, (S)-N-propyl-N-[6-[2-(3,4-methylendioxyphenyl)ethylamino]hexyl]-5,6-dihydroxy-1,2,3,4-tetrahydro-2-naphthylamine dihydrochloride] | 25 nM | 0.4 nM | 10 | 0.3 |
| CCCN(CCCCCCN1CCN(c2ccccc2OC)CC1)[C@H]1CCc2c(ccc(O)c2O)C1 [Compound 3, (S)-N-propyl-N-[6-[4-(2-methoxyphenyl)piperazin-1-yl]hexyl]-5,6-dihydroxy-1,2,3,4-tetrahydro-2-naphthylamine trihydrochloride] | 69 nM | 0.31 nM | – | – |
| CCCN(CCCCCCNCCOc1ccccc1[N+](=O)[O-])[C@H]1CCc2c(ccc(O)c2O)C1 [Compound 4, (S)-N-propyl-N-[6-[2-(2-nitrophenoxy)ethylamino]hexyl]-5,6-dihydroxy-1,2,3,4-tetrahydro-2-naphthylamine dihydrochloride] | 78 nM | 1.1 nM | – | – |
| CCCN(CCCCCCNCCOc1ccc([N+](=O)[O-])cc1)[C@H]1CCc2c(ccc(O)c2O)C1 [Compound 5, (S)-N-propyl-N-[6-[2-(4-nitrophenoxy)ethylamino]hexyl]-5,6-dihydroxy-1,2,3,4-tetrahydro-2-naphthylamine dihydrochloride] | 69 nM | 1.5 nM | – | – |
| CCCN(CCCCCCNCCOc1ccc(S(C)(=O)=O)cc1)[C@H]1CCc2c(ccc(O)c2O)C1.Cl.Cl [Compound 6, (S)-N-propyl-N-[6-[2-(4-methylsulphonylphenoxy)ethylamino]hexyl]-5,6-dihydroxy-1,2,3,4-tetrahydro-2-naphthylamine dihydrochloride] | 81 nM | 1.3 nM | 10 | 3 |
| CCCN(CCCCCCNC(=O)COc1ccccc1OC)[C@H]1CCc2c(ccc(O)c2O)C1 [Compound 7, (S)-N-propyl-N-[6-[(2-methoxyphenoxy)acetylamino]hexyl]-5,6-dihydroxy-1,2,3,4-tetrahydro-2-naphthylamine hydrochloride] | 370 nM | 0.25 nM | – | – |
| Br.Br.CCCN(CCCCCCNCCSc1ccc(O)cc1)[C@H]1CCc2c(ccc(O)c2O)C1 [Compound 8, (S)-N-propyl-N-[6-[2-(4-hydroxyphenylthio)ethylamino]hexyl]-5,6-dihydroxy-1,2,3,4-tetrahydro-2-naphthylamine dihydrobromide] | 23 nM | 0.1 nM | 1 | 1.7 |
| Br.Br.CCCN(CCCCCCNCCCc1ccc(O)cc1)[C@H]1CCc2c(ccc(O)c2O)C1 [Compound 9, (S)-N-propyl-N-[6-[3-(4-hydroxyphenyl)propylamino]hexyl]-5,6-dihydroxy-1,2,3,4-tetrahydro-2-naphthylamine dihydrobromide] | 22 nM | 0.15 nM | 10 | 5 |
| CCCN(CCCCCCNCCc1ccc(O)c(N)c1)[C@H]1CCc2c(ccc(O)c2O)C1.Cl.Cl.Cl [Compound 29, (S)-N-propyl-N-[6-[2-(3-amino-4-hydroxyphenyl)ethylamino]hexyl]-5,6-dihydroxy-1,2,3,4-tetrahydro-2-naphthylamine trihydrochloride] | – | – | 50 | 1.7 |
| CCCN(CCCCCCNCCc1ccc(NS(C)(=O)=O)cc1)[C@H]1CCc2c(ccc(O)c2O)C1.Cl.Cl [Compound 31, (S)-N-propyl-N-[6-[2-(4-methylsulphonylaminophenyl)ethylamino]hexyl]-5,6-dihydroxy-1,2,3,4-tetrahydro-2-naphthylamine dihydrochloride] | – | – | 100 | 5 |
| CCCN(CCCCCCNCCc1ccc(NC(N)=O)cc1)[C@H]1CCc2c(ccc(O)c2O)C1.Cl.Cl [Compound 32, (S)-N-propyl-N-[6-[2-(4-aminocarbonylaminophenyl)ethylamino]hexyl]-5,6-dihydroxy-1,2,3,4-tetrahydro-2-naphthylamine dihydrochloride] | – | – | 33 | 10 |
| CCCN(CCCCCCNCCc1ccc(NC(C)=O)cc1)[C@H]1CCc2c(ccc(O)c2O)C1.Cl.Cl [Compound 33, (S)-N-propyl-N-[6-[2-(4-acetylaminophenyl)ethylamino]hexyl]-5,6-dihydroxy-1,2,3,4-tetrahydro-2-naphthylamine dihydrochloride] | – | – | 5 | 5 |
| CCCN(CCCCCCNCCc1ccc(C(=O)OC)cc1)[C@H]1CCc2c(ccc(O)c2O)C1.Cl.Cl [Compound 35, (S)-N-propyl-N-[6-[2-(4-methoxycarbonylphenyl)ethylamino]hexyl]-5,6-dihydroxy-1,2,3,4-tetrahydro-2-naphthylamine dihydrochloride] | – | – | 2 | 0.4 |
| CCCN(CCCCCCNCCc1ccc(CO)cc1)[C@H]1CCc2c(ccc(O)c2O)C1.Cl.Cl [Compound 36, (S)-N-propyl-N-[6-[2-(4-hydroxymethylphenyl)ethylamino]hexyl]-5,6-dihydroxy-1,2,3,4-tetrahydro-2-naphthylamine dihydrochloride] | – | – | 4.5 | 12 |
| CCCN(CCCCCCNCCc1ccc(C(N)=O)cc1)[C@H]1CCc2c(ccc(O)c2O)C1.Cl.Cl [Compound 37, (S)-N-propyl-N-[6-[2-(4-carbamoylphenyl)ethylamino]hexyl]-5,6-dihydroxy-1,2,3,4-tetrahydro-2-naphthylamine dihydrochloride] | – | – | 5 | 5 |
| CCCN(CCCCCCNCCc1ccc(S(=O)(=O)O)cc1)[C@H]1CCc2c(ccc(O)c2O)C1.Cl.Cl [Compound 39, (S)-N-propyl-N-[6-[2-(4-sulphophenyl)ethylamino]hexyl]-5,6-dihydroxy-1,2,3,4-tetrahydro-2-naphthylamine dihydrochloride] | – | – | 2.5 | 3 |
| CCCN(CCCCCCNCCc1ccc2nc(N)sc2c1)[C@H]1CCc2c(ccc(O)c2O)C1.Cl.Cl.Cl [Compound 40, (S)-N-propyl-N-[6-[2-(2-amino-1,3-benzothiazol-6-yl)ethylamino]hexyl]-5,6-dihydroxy-1,2,3,4-tetrahydro-2-naphthylamine trihydrochloride] | – | – | 14 | 3 |
